In this test the test system is thrips (Frankliniella occidentalis). Briefly: Example 1: powder adherence on thrips body. Particulars: mesh cage, Petri dish filled with powdery carrier. The format is in vivo. From the text: From 250 individual thrips (Frankliniella occidentalis) sourced from the company Bionema Limited in Swansea, 50 were released in mesh cages where fresh flowers and green beans were growing, and which contained a Petri dish filled with one powdery carriers.

Consider `O=C(CO)[C@@H](O)[C@H](O)[C@H](O)CO` [fructose], for which the “fate of thrips after contact with the powder” value is on record as “died thereafter”.
The same measure for `CCCCCCCCCCCCCCCCCC(=O)O` [stearic acid]: “died thereafter”.

The values above are taken from US20250169505A1, “INSECT PEST CONTROL BY A MIXTURE OF LURING SUBSTANCES WITH PATHOGENIC BIO-INSECTICIDES” (GREEN PROTECTA SA, priority 2022, published 2025).
